Data reported in the supplement of paper PMC11451515.

Tested on: NOMO1
Experiment: cell viability relative to DMSO control; higher = less cytotoxic
Details: 48 h
Outline: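 NOMO1 or SEM cells were plated at 500 cells/well and P12-Ichikawa cells at 1000 cells/well in 1536-well plates (5 μl), after each leukemia line had been adapted for at least four passages in each medium. Pin dosing delivered library compounds in DMSO at 11 threefold concentrations, 47 μM to 0.79 nM. CellTiter-Glo One luminescence was read after 48 h at 37°C. Viability is reported as a per-plate percentage of DMSO wells, with cell-free wells as background.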

[1] = HPLM + 10% dialyzed FBS, 0.000781 µM
[2] = HPLM + 10% dialyzed FBS, 0.00234 µM
[3] = HPLM + 10% dialyzed FBS, 0.00702 µM
[4] = HPLM + 10% dialyzed FBS, 0.0211 µM
[5] = HPLM + 10% dialyzed FBS, 0.0632 µM
[6] = HPLM + 10% dialyzed FBS, 0.19 µM
[7] = HPLM + 10% dialyzed FBS, 0.569 µM
[8] = HPLM + 10% dialyzed FBS, 1.71 µM
[9] = HPLM + 10% dialyzed FBS, 5.12 µM
[10] = HPLM + 10% dialyzed FBS, 15.4 µM
[11] = HPLM + 10% dialyzed FBS, 46.1 µM
[12] = RPMI 5 mM glucose + 10% FBS, 0.000781 µM
[13] = RPMI 5 mM glucose + 10% FBS, 0.00234 µM
[14] = RPMI 5 mM glucose + 10% FBS, 0.00702 µM
[15] = RPMI 5 mM glucose + 10% FBS, 0.0211 µM
[16] = RPMI 5 mM glucose + 10% FBS, 0.0632 µM
[17] = RPMI 5 mM glucose + 10% FBS, 0.19 µM
[18] = RPMI 5 mM glucose + 10% FBS, 0.569 µM
[19] = RPMI 5 mM glucose + 10% FBS, 1.71 µM
[20] = RPMI 5 mM glucose + 10% FBS, 5.12 µM
[21] = RPMI 5 mM glucose + 10% FBS, 15.4 µM
[22] = RPMI 5 mM glucose + 10% FBS, 46.1 µM
[23] = RPMI 5 mM glucose + 10% dialyzed FBS, 0.000781 µM
[24] = RPMI 5 mM glucose + 10% dialyzed FBS, 0.00234 µM
[25] = RPMI 5 mM glucose + 10% dialyzed FBS, 0.00702 µM
[26] = RPMI 5 mM glucose + 10% dialyzed FBS, 0.0211 µM
[27] = RPMI 5 mM glucose + 10% dialyzed FBS, 0.0632 µM
[28] = RPMI 5 mM glucose + 10% dialyzed FBS, 0.19 µM
[29] = RPMI 5 mM glucose + 10% dialyzed FBS, 0.569 µM
[30] = RPMI 5 mM glucose + 10% dialyzed FBS, 1.71 µM
[31] = RPMI 5 mM glucose + 10% dialyzed FBS, 5.12 µM
[32] = RPMI 5 mM glucose + 10% dialyzed FBS, 15.4 µM
[33] = RPMI 5 mM glucose + 10% dialyzed FBS, 46.1 µM

Compound	cell viability [1]	cell viability [2]	cell viability [3]	cell viability [4]	cell viability [5]	cell viability [6]	cell viability [7]	cell viability [8]	cell viability [9]	cell viability [10]	cell viability [11]	cell viability [12]	cell viability [13]	cell viability [14]	cell viability [15]	cell viability [16]	cell viability [17]	cell viability [18]	cell viability [19]	cell viability [20]	cell viability [21]	cell viability [22]	cell viability [23]	cell viability [24]	cell viability [25]	cell viability [26]	cell viability [27]	cell viability [28]	cell viability [29]	cell viability [30]	cell viability [31]	cell viability [32]	cell viability [33]
O=P(O)(O)C(O)(Cn1ccnc1)P(=O)(O)O	95.9%	126%	120%	119%	125%	130%	121%	139%	104%	111%	117%	93.5%	111%	108%	103%	105%	109%	101%	104%	110%	104%	101%	101%	127%	114%	130%	112%	133%	118%	124%	122%	117%	104%
CC[C@H]1OC(=O)[C@H](C)C(=O)[C@H](C)[C@@H](O[C@H]2O[C@H](C)C[C@H](N(C)C)[C@H]2O)[C@](C)(OC)C[C@@H](C)C(=O)[C@H](C)[C@H]2N(CCCCn3cnc(-c4cccnc4)c3)C(=O)O[C@]12C	–	–	–	–	–	–	–	–	–	–	–	127%	118%	118%	111%	115%	120%	104%	116%	118%	107%	103%	102%	121%	110%	109%	113%	104%	100%	98.8%	116%	107%	95.9%
Cc1ccnc2c1NC(=O)c1cccnc1N2C1CC1	102%	104%	98.7%	121%	112%	112%	113%	89.7%	55.3%	61.4%	35.8%	85.2%	107%	93.1%	100%	103%	118%	93.3%	84.1%	59.3%	68.1%	59.1%	94.8%	102%	110%	98.6%	113%	97.1%	110%	97.4%	52.7%	79.4%	79.4%
CC(N[C@H]1CCCC[C@@H]1NC(=O)c1ccc(Cl)cc1)c1cccc2ccccc12 (some centres undefined)	117%	131%	112%	127%	113%	110%	139%	86.3%	83%	28%	29.5%	100%	107%	120%	114%	110%	113%	114%	102%	105%	19.9%	18.2%	102%	108%	113%	112%	111%	117%	103%	103%	107%	25.4%	24.2%
COC1=C(OCCCN2CCOCC2)C=CC\3=C1/N=C(/NC(=O)C4=CN=C(N)N=C4)N5CC/N=C35	101%	111%	111%	89.4%	99.4%	73.2%	55.5%	59.4%	44.6%	42.2%	39.8%	83.3%	90.5%	84.4%	78.9%	83.3%	80.5%	71.9%	59.6%	52%	49.3%	46.1%	94.7%	105%	88.9%	92.7%	77.8%	63.5%	59.6%	54.1%	49.6%	49.1%	34.6%
CC(=O)Oc1ccccc1C(=O)Nc1ncc([N+](=O)[O-])s1	98.9%	100%	98.9%	107%	111%	105%	106%	96.1%	98.4%	71.8%	89.4%	84%	92%	93.4%	96.4%	115%	92.3%	102%	103%	104%	97.6%	96.9%	83.7%	95.2%	77.7%	86.3%	94.8%	98.8%	95.7%	98.4%	86.3%	69.2%	75.1%
OCC(O)C(O)C(O)CO (centres undefined)	98.8%	88.8%	87.7%	104%	81.7%	92.4%	99%	86.3%	96.7%	70.2%	80%	84%	99.3%	92.6%	84.4%	89.9%	87.7%	84.9%	85.8%	82%	82.1%	80%	77.9%	86.8%	112%	96.2%	106%	106%	103%	84.9%	89%	72.5%	94.6%
C[C@@H](CN1CC(=O)NC(=O)C1)N1CC(=O)NC(=O)C1	112%	125%	121%	117%	113%	55.7%	32.8%	22.3%	33%	8.92%	13.7%	106%	113%	125%	101%	113%	89%	55.9%	15.4%	17.5%	8.63%	12.9%	102%	111%	99.9%	114%	109%	83%	44.7%	18.8%	21.5%	17.2%	19.8%
CCOC(=O)\C1=C\[C@]2(CC)CCCN3CCC4=C([C@H]23)[N]1C5=C4C=CC=C5	104%	118%	122%	124%	125%	126%	131%	123%	124%	126%	54.5%	95.3%	103%	113%	113%	123%	120%	135%	113%	102%	111%	57.7%	91.8%	105%	118%	122%	108%	113%	119%	110%	108%	105%	70.5%
CC[C@@H]([C@H](C)O)n1ncn(-c2ccc(N3CCN(c4ccc(OCC5CO[C@@](Cn6cncn6)(c6ccc(F)cc6F)C5)cc4)CC3)cc2)c1=O (some centres undefined)	109%	106%	91.5%	112%	106%	98.2%	109%	107%	82.4%	94.8%	84.9%	101%	97.3%	93.3%	97%	83.5%	91.4%	87.3%	87%	87.5%	82.3%	78.1%	95.1%	90.3%	92.6%	81.3%	93.6%	83.4%	92.1%	90.1%	90.4%	87.1%	78.2%
CN1CC(=O)N2[C@H](c3ccc4c(c3)OCO4)c3[nH]c4ccccc4c3C[C@@H]2C1=O	111%	99.6%	109%	107%	103%	94.8%	98.7%	83.3%	91.5%	90.7%	74.8%	97.2%	96.1%	89.1%	88.4%	101%	101%	97%	83.9%	92.8%	97.8%	77%	107%	93.5%	97.6%	98.3%	88.4%	103%	98.9%	89%	81.3%	109%	79.1%
Cc1ccccc1C(=O)Nc1ccc(C(=O)N2CCCC(O)c3cc(Cl)ccc32)c(C)c1 (centres undefined)	129%	125%	123%	141%	139%	121%	143%	163%	147%	125%	137%	–	–	–	–	–	–	–	–	–	–	–	–	–	–	–	–	–	–	–	–	–	–
CC1=CC(=CC(=C1C\C2=N\CCN2)C)C(C)(C)C	91.4%	115%	107%	129%	104%	109%	108%	87.7%	57.4%	34.2%	35.9%	99.3%	98.7%	92.9%	100%	114%	96.3%	98.4%	91.1%	69.5%	51.5%	43.9%	86.8%	106%	101%	100%	109%	99.8%	116%	78.9%	49.1%	56.8%	50.7%
CC(C)(O)CC(=O)NCCn1ccc2ncnc(Nc3ccc(Oc4cccc(C(F)(F)F)c4)c(Cl)c3)c21	96.8%	109%	107%	120%	89.5%	98.9%	107%	85.5%	80.5%	54.7%	33.9%	95.1%	109%	103%	105%	101%	97.9%	111%	95.3%	96.8%	79%	53.6%	106%	100%	95.3%	108%	99.8%	109%	107%	97.1%	81.9%	67.8%	44.1%
CNc1nc(Nc2cnn([C@H]3CCN(C4COC4)C[C@@H]3F)c2Cl)ncc1C(F)(F)F	105%	105%	115%	116%	120%	36.8%	82.4%	35.6%	39.6%	36.5%	29.5%	97.2%	109%	110%	118%	105%	107%	115%	65.4%	19.3%	19.6%	18%	98.8%	110%	108%	107%	118%	127%	103%	126%	39.6%	23.6%	26.5%
NC[C@H]1O[C@H](O[C@@H]2[C@H](O)[C@@H](O[C@H]3O[C@H](CO)[C@@H](O)[C@H](N)[C@H]3O)[C@H](N)C[C@@H]2N)[C@H](O)[C@@H](O)[C@@H]1O	132%	122%	121%	111%	135%	127%	113%	129%	112%	121%	109%	–	–	–	–	–	–	–	–	–	–	–	120%	128%	114%	124%	113%	124%	113%	123%	120%	106%	112%
